Assay results as given in patent US9504676B2, “Molecules inhibiting a metabolic pathway involving the Syk protein tyrosine kinase and method for identifying said molecules” (CENTRE NATIONAL DE LA RECHERCHE SCIENTIFIQUE, priority 2008, dated 2016).

Legend:
[1] = system: Btk; test: Phosphorylation and FcεRI-induced kinase activity of Btk in RBL-2H3 cells; assay type: cell-based, rat
From the text: (§1) To examine the functional similarities with G4G11, the inventors explored the biological effects of C-13 on mast cell activation. […] Similarly to the intrabody G4G11, C-13 inhibited the phosphorylation and FcεRI-induced kinase activity of Btk (FIG. 2A) and the phosphorylation of PLC-γ1 and PLC-γ2, the two PLC-γ isoforms expressed in mast cells (FIGS. 2A, C). PTK Lyn phosphorylates both Syk and Btk giving rise to the complete activation thereof and the subsequent phosphorylation of PLC-γ^18.
(§2) • 1) Chemical products and antibodies. A chemical bank of 3000 molecules (a varied subset) was acquired from ChemBridge, Inc. (San Diego, Calif.). Stocks of solutions of small molecules were prepared at a rate of 10 mM in DMSO (dimethylsulphoxide), except for C-13 (methyl 2-{5-[(3-benzyl-4-oxo-2-thioxo-1,3-thiazolidin-5-ylidene)methyl]-2-furyl}benzoate, ChemBridge ID No. 6197026) prepared in DMF (dimethylformamide). […] The binding of G4G11 with Syk was assessed by adding the 9E10 monoclonal antibody conjugated with HRP detecting the amino acid sequence EQKLISEEDLN of human c-myc protein located at the C-terminal end of the scFv fragment. To generate Syk mutants, targeted mutagenesis was used on GST:Syk 6-242 protein and the binding of G4G11 with the mutants was assessed in the presence of 5 μM of C-13. • 3) Cells, culture conditions and functional tests. […]

[2] = Observation of toxicity after administration to animals; assay type: in vivo, BALB/c mice
From the text: The pharmaceutical molecule screening approach described herein represents a generic platform wherein the initial use of antibodies makes it possible to detect the domains of the target molecule having a therapeutic potential, thus facilitating the design of chemical molecules (via in silico and/or in vitro screening) capable acting as functional antibody mimics and as potential protein-protein interaction inhibitors.
(§3) Finally, to extend these observations to mast cell functions in vivo, the inventors tested the effects of C-13 on passive systemic (PSA) and cutaneous anaphylaxis (PCA) induced in BALB/c mice by administering DNP-specific IgE molecules followed by intravenous stimulation with DNP-KLH hapten. […] The intensity of systemic anaphylaxis was determined by measuring both the drop in body temperature and the increase in vascular permeability following antigen administration.

[3] = system: PLC-γ1 and PLC-γ2; test: Phosphorylation of PLC-γ1 and PLC-γ2 in mast cells; assay type: cell-based
From the text: as §1, §2

[4] = system: BALB/c mice; test: Passive cutaneous anaphylaxis (PCA); assay type: in vivo; design: unit not given here; conditions: local intradermal injection in the ear
Experimental: as §3
as §2, with “(dimethylformamide). Unless specified otherwise, all the reagents were supplied by Sigma.” for “(dimethylformamide).”

[5] = system: Lyn; test: FcεRI-dependent Lyn activation in RBL-2H3 cells; assay type: cell-based, rat
From the text: as §1, §2

[6] = system: SLP-76; test: Phosphorylation of SLP-76 (phospho-specific antibodies); assay type: cell-based, rat; conditions: RBL-2H3 cells

## COC(=O)c1ccccc1-c1ccc(/C=C2/SC(=S)N(Cc3ccccc3)C2=O)o1 [Molecule C-13, methyl 2-{5-[(3-benzyl-4-oxo-2-thioxo-1,3-thiazolidin-5-ylidene)methyl]-2-furyl}benzoate]
[1]
  phosphorylation and FcεRI-induced kinase activity of Btk: inhibited
[2]; after oral administration, prior to antigen stimulation
  signs of toxicity in the animals: no obvious sign of toxicity
[2]; oral or local administration, one hour to 12 days
  apparent toxic effect: lack of an apparent toxic effect
[3]
  phosphorylation of PLC-γ1 and PLC-γ2: inhibited
[4]
  estimated IC50, inhibitory effect on PCA: ~25
[5]
  FcεRI-dependent Lyn activation: did not affect
[6]
  phosphorylation of SLP-76: inhibits
